In US9732063B2, “Kinase inhibitors” (RESPIVERT LIMITED, priority 2012, dated 2017):

How the values were obtained:
[1] = test system: PBMCs; assay: LPS-induced TNFα/IL-8 release in PBMC cells; assay type: cell-based; settings: Homo sapiens, read-out: IC50 Values for Inhibition of Cytokine Release PBMCs IL-8
Method: Peripheral blood mononuclear cells (PBMCs) from healthy subjects are separated from whole blood using a density gradient (Lymphoprep, Axis-Shield Healthcare). The PBMCs are seeded in 96 well plates and treated with compounds at the desired concentration for 2 hours before addition of 1 ng/mL LPS (Escherichia Coli O111:B4 from Sigma Aldrich) for 24 hours under normal tissue culture conditions (37° C., 5% CO2). The supernatant is harvested for determination of IL-8 and TN Fa concentrations by sandwich ELISA (Duo-set, R&D systems) and read on the fluorescence microplate reader (Varioskan® Flash, ThermoFisher Scientific).

[2] = target: GSK3α (Homo sapiens (Human), UniProt P49840); assay: GSK 3α enzyme inhibition (Z-LYTE FRET, Method 2); assay type: biochemical
Method: The enzyme inhibitory activities of compounds disclosed herein are determined by FRET using synthetic peptides labelled with both donor and acceptor fluorophores (Z-LYTE, Invitrogen Ltd., Paisley, UK).
The inhibitory activities of compounds of the invention against the GSK 3α enzyme isoform (Invitrogen), are evaluated by determining the level of activation/phosphorylation of the target peptide. The GSK3-α protein (500 ng/mL, 2.5 μL) is mixed with the test compound (2.5 μL at either 4 μg/mL, 0.4 μg/mL, 0.04 μg/mL, or 0.004 μg/mL) for 2 hr at RT. The FRET peptide (8 μM, 2.5 μL), which is a phosphorylation target for GSK3α, and ATP (40 μM, 2.5 μL) are then added to the enzyme/compound mixture and the resulting mixture incubated for 1 hr. Development reagent (protease, 5 μL) is added for 1 hr prior to detection in a fluorescence microplate reader (Varioskan® Flash, ThermoFisher Scientific).
In all cases, the site-specific protease cleaves non-phosphorylated peptide only and eliminates the FRET signal. Phosphorylation levels of each reaction are calculated using the ratio of coumarin emission (donor) over fluorescein emission (acceptor), for which high ratios indicate high phosphorylation and low ratios indicate low phosphorylation levels.

[3] = test system: PBMCs; assay: IL-2 and IFN gamma release in CD3/CD28 stimulated PBMC cells; assay type: cell-based; settings: Homo sapiens
Method: PBMCs from healthy subjects are separated from whole blood using a density gradient (Lymphoprep, Axis-Shield Healthcare). Cells are added to a 96 well plate pre-coated with a mixture of CD3/CD38 monoclonal antibodies (0.3 μg/mL eBioscience and 3 μg/mL BD Pharmingen respectively). Compound at the desired concentration is then added to the wells and the plate left for 3 days under normal tissue culture conditions. Supernatants are harvested and IL-2 and IFN gamma release determined by Sandwich ELISA (Duo-set, R&D System). The IC50 is determined from the dose response curve.

Chain of GSK3α (P49840 whole entry): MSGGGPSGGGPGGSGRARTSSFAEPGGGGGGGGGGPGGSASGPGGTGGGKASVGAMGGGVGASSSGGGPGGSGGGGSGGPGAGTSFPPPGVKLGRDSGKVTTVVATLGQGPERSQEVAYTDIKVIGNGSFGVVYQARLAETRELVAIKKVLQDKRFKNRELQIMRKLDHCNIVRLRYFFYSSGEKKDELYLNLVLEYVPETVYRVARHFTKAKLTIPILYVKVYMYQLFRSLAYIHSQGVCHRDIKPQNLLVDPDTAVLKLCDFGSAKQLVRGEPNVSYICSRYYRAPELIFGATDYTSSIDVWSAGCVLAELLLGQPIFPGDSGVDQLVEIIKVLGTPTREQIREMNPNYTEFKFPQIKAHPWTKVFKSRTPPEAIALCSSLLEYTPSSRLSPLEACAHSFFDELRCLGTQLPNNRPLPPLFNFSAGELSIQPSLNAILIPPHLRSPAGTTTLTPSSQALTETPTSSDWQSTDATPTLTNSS

| SMILES | IC50 [1] [nM] | IC50 [2] [nM] | IC50 ([1]; LPS-stimulated PBMCs) [nM] | IC50 ([3]; read-out: IC50 Values for Inhibition of Cytokine Release PBMCs IFNγ) [nM] | IC50 ([3]; read-out: IC50 Values for Inhibition of Cytokine Release PBMCs IL-2) [nM] |
| --- | --- | --- | --- | --- | --- |
| COCCOCCOCCOc1cccc(Nc2nccc(Oc3ccc(NC(=O)Nc4cc(C(C)(C)C)nn4-c4ccc(OC)nc4)c4ccccc34)n2)c1 [Example 4, 1-(3-(tert-Butyl)-1-(6-methoxypyridin-3-yl)-1H-pyrazol-5-yl)-3-(4-((2-((3-(2-(2-(2-methoxy-ethoxy)ethoxy)ethoxy)phenyl)amino)pyrimidin-4-yl)oxy)naphthalen-1-yl)urea] | 1.7 | – | – | – | – |
| COc1ccc(-n2nc(C(C)(C)C)cc2NC(=O)Nc2ccc(Oc3ccnc(Nc4cccc(OC(N)=O)c4)n3)c3ccccc23)cn1 [Example 5, 3-(4-((4-(3-(3-(tert-Butyl)-1-(6-methoxypyridin-3-yl)-1H-pyrazol-5-yl)ureido)naphthalen-1-yl)oxy)pyrimidin-2-yl)amino)phenyl carbamate] | 1.9 | 306 | – | – | – |
| COc1ccc(-n2nc(C(C)(C)C)cc2NC(=O)Nc2ccc(Oc3ccnc(Nc4cccc(SCCO)c4)n3)c3ccccc23)cn1 [Example 6] | 1.6 | 501 | – | – | – |
| COc1ccc(-n2nc(C(C)(C)C)cc2NC(=O)Nc2ccc(Oc3ccnc(Nc4cccc([S+]([O-])C5CC5)c4)n3)c3ccccc23)cn1 (stereo not shown) [Example 7, 1-(3-(tert-Butyl)-1-(6-methoxypyridin-3-yl)-1H-pyrazol-5-yl)-3-(4-((2-((3-(cyclopropyl-sulfinyl)phenyl)amino)pyrimidin-4-yl)oxy)naphthalen-1-yl)urea] | 0.9 | 125 | – | – | – |
| COc1ccc(-n2nc(C(C)(C)C)cc2NC(=O)Nc2ccc(Oc3ccnc(Nc4cccc(S(=O)(=O)C5CC5)c4)n3)c3ccccc23)cn1 [Example 8, 1-(3-(tert-Butyl)-1-(6-methoxypyridin-3-yl)-1H-pyrazol-5-yl)-3-(4-((2-((3-(cyclopropyl-sulfonyl)phenyl)amino)pyrimidin-4-yl)oxy)naphthalen-1-yl)urea] | 1 | 258 | – | – | – |
| COc1cc(N=S(C)(C)=O)cc(Nc2nccc(Oc3ccc(NC(=O)Nc4cc(C(C)C)nn4-c4ccc(C)cc4)c4ccccc34)n2)c1 [Example 16, 3-(5-Methoxy((4-((4-(3-(3-isopropyl-1-(p-tolyl)-1H-pyrazol-5-yl)ureido)naphthalen-1-yl)-oxy)pyrimidin-2-yl)amino))phenyl-S,S-dimethyl-N-phenyl sulfoximine] | – | – | 1.7 | – | – |
| Cc1ccc(-n2nc(C(C)C)cc2NC(=O)Nc2ccc(Oc3ccnc(Nc4cccc(S(=O)(=O)C5CC5)c4)n3)c(Cl)c2Cl)cc1 [Example 24, 1-(2,3-Dichloro-4-((2-((3-(cyclopropylsulfonyl)phenyl)amino)pyrimidin-4-yl)oxy)phenyl)-3-(3-isopropyl-1-(p-tolyl)-1H-pyrazol-5-yl)urea] | 3.8 | 117 | – | – | – |
| COc1cc(Nc2nccc(Oc3ccc(NC(=O)Nc4cc(C(C)C)nn4-c4ccc(C)cc4)c(F)c3F)n2)cc(OCCN2CCOCC2)c1 [Example 25, 1-(2,3-Difluoro-4-((2-((3-methoxy-5-(2-morpholinoethoxy)phenyl)amino)pyrimidin-4-yl)oxy)phenyl)-3-(3-isopropyl-1-(p-tolyl)-1H-pyrazol-5-yl)urea] | 2 | 804 | – | – | – |
| COc1cc(N=S(C)(C)=O)cc(Nc2nccc(Oc3ccc(NC(=O)Nc4cc(C(C)C)nn4-c4ccc(C)cc4)c(Cl)c3Cl)n2)c1 [Example 26] | 3.9 | 426 | – | – | – |
| COCCOCCOCCOc1cc(Nc2nccc(Oc3ccc(NC(=O)Nc4cc(C(C)C)nn4-c4ccc(C)cc4)c4ncccc34)n2)cc(OC)c1 [Example 27, 1-(3-Isopropyl-1-(P-tolyl)-1H-pyrazol-5-yl)-3-(5-((2-((3-methoxy-5-(2-(2-(2-methoxy-ethoxy)ethoxy)ethoxy)phenyl)amino)pyrimidin-4-yl)oxy)quinolin-8-yl)urea] | 24.8 | > 10000 | – | – | – |
| COc1cc(Nc2nccc(Oc3ccc(NC(=O)Nc4cc(C(C)C)nn4-c4ccc(C)cc4)c4ncccc34)n2)cc(OCCN2CCOCC2)c1 [Example 28, 1-(3-Isopropyl-1-(P-tolyl)-1H-pyrazol-5-yl)-3-(5-((2-((3-methoxy-5-(2-morpholinoethoxy)-phenyl)amino)pyrimidin-4-yl)oxy)quinolin-8-yl)urea] | 24 | > 10000 | – | – | – |
| COCCOCCOCCSc1cc(Nc2nccc(Oc3ccc(NC(=O)Nc4cc(C(C)C)nn4-c4ccc(C)cc4)c4ccccc34)n2)cc(OC)c1 [Example 31, 1-(3-Isopropyl-1-(P-tolyl)-1H-pyrazol-5-yl)-3-(4-((2-((3-methoxy-5-((2-(2-(2-methoxy-ethoxy)ethoxy)ethyl)thio)phenyl)amino)pyrimidin-4-yl)oxy)naphthalen-1-yl)urea] | 4.4 | > 10000 | – | – | – |
| COCCOCCOCCOc1cc(Nc2nccc(Oc3ccc(NC(=O)Nc4cc(C(C)C)nn4-c4ccc(C)cc4)c4ccccc34)n2)cc(OC(F)(F)F)c1 [Example 33, 1-(3-Isopropyl-1-(p-tolyl)-1H-pyrazol-5-yl)-3-(4-((2-((3-(2-(2-(2-methoxyethoxyl)ethoxy)-ethoxy)-5-(trifluoromethoxy)phenyl)amino)pyrimidin-4-yl)oxy)naphthalen-1-yl)urea] | 8.7 | > 10000 | – | – | – |
| COCCOCCOCCOc1cc(Nc2nccc(Oc3ccc(NC(=O)Nc4cc(C(C)C)nn4-c4ccc(C)cc4)c4ccccc34)n2)cc(C(F)(F)F)c1 [Example 34] | 12.2 | > 10000 | – | – | – |
| COCCOCCOCCS(=O)(=O)c1cc(Nc2nccc(Oc3ccc(NC(=O)Nc4cc(C(C)C)nn4-c4ccc(C)cc4)c4ccccc34)n2)cc(OC)c1 [Example 36, 1-(3-Isopropyl-1-(p-tolyl)-1H-pyrazol-5-yl)-3-(4-((2-((3-methoxy-5-((2-(2-(2-methoxy-ethoxy)ethoxy)ethyl)sulfonyl)phenyl)amino)pyrimidin-4-yl)oxy)naphthalen-1-yl)urea] | 2.5 | 596 | – | – | – |
| Cc1ccc(-n2nc(C(C)(C)C)cc2NC(=O)Nc2ccc(Oc3ccnc(Nc4cccc(S(=O)(=O)C5CC5)c4)n3)c3ccccc23)cc1 [Example 46, 1-(3-(tert-Butyl)-1-(p-tolyl)-1H-pyrazol-5-yl)-3-(4-((2-((3-(cyclopropylsulfonyl)phenyl)-amino)pyrimidin-4-yl)oxy)naphthalen-1-yl)urea] | 2.7 | 172 | – | – | – |
| COCCOCCOCCOc1cc(F)cc(Nc2nccc(Oc3ccc(NC(=O)Nc4cc(C(C)(C)C)nn4-c4ccc(C)cc4)c4ccccc34)n2)c1 [Example 50, 1-(3-(tert-Butyl)-1-(p-tolyl)-1H-pyrazol-5-yl)-3-(4-((2-((3-fluoro-5-(2-(2-(2-methoxyethoxy)-ethoxy)ethoxy)phenyl)amino)pyrimidin-4-yl)oxy)naphthalen-1-yl)urea] | 8.6 | 3030 | – | – | – |
| COc1cc(Nc2nccc(Oc3ccc(NC(=O)Nc4cc(C(C)(C)C)nn4-c4ccc(C)cc4)c4ccccc34)n2)cc(OCCOCCOCCN2CCOCC2)c1 [Example 58, 1-(3-(tert-Butyl)-1-(p-tolyl)-1H-pyrazol-5-yl)-3-(4-((2-((3-methoxy-5-(2-(2-(2-morpholinoethoxy)ethoxy)ethoxy)phenyl)amino)pyrimidin-4-yl)oxy)naphthalen-1-yl)urea] | – | – | – | 1.3 | 39.6 |
| COc1cc(Nc2nccc(Oc3ccc(NC(=O)Nc4cc(C(C)(C)C)nn4-c4ccc(C)cc4)c(Cl)c3Cl)n2)cc(OCCN2CCOCC2)c1 [Example 59, 1-(3-(tert-Butyl)-1-(p-tolyl)-1H-pyrazol-5-yl)-3-(2,3-dichloro-4-((2-((3-methoxy-5-(2-morpholinoethoxy)phenyl)amino)pyrimidin-4-yl)oxy)phenyl)urea] | 4.2 | – | – | – | – |
| COCCOCCOCCN(C)c1cc(Nc2nccc(Oc3ccc(NC(=O)Nc4cc(C(C)(C)C)nn4-c4ccc(C)cc4)c4ccccc34)n2)cc(OC)c1 [Example 67, 1-(3-(tert-Butyl)-1-(p-tolyl)-1H-pyrazol-5-yl)-3-(4-((2-((3-methoxy-5-((2-(2-(2-methoxyethoxy)ethoxy)ethyl)(methyl)amino)phenyl)amino)pyrimidin-4-yl)oxy)naphthalen-1-yl)urea] | 3.5 | – | – | – | – |
| COc1cc(Nc2nccc(Oc3ccc(NC(=O)Nc4cc(C(C)(C)C)nn4-c4ccc(C)cc4)c(Cl)c3Cl)n2)cc(S(=O)(=O)C2CC2)c1 [Example 68, 1-(3-(tert-Butyl)-1-(p-tolyl)-1H-pyrazol-5-yl)-3-(2,3-dichloro-4-((2-((3-(cyclopropylsulfonyl)-5-methoxyphenyl)amino)pyrimidin-4-yl)oxy)phenyl)urea] | 5.2 | – | – | – | – |
